These results are taken from PubChem BioAssay AID1259407 (Chemical Carcinogenesis Research Information System (CCRIS), 2018).

The data set concerns CCRIS mutagenicity, Ames/micronucleus/aberration tests. The data set can be described thus: CCRIS mutagenicity studies.
Where [1] appears, read: Test System: AMES SALMONELLA TYPHIMURIUM, Strain/Indicator: TA1535, Metabolic Activation: NONE, Method: PREINCUBATION
Where [2] appears, read: Test System: AMES SALMONELLA TYPHIMURIUM, Strain/Indicator: TA98, Metabolic Activation: NONE, Method: PREINCUBATION
[3] abbreviates: Test System: AMES SALMONELLA TYPHIMURIUM, Strain/Indicator: TA100, Metabolic Activation: NONE, Method: PREINCUBATION
[4] abbreviates: Test System: AMES SALMONELLA TYPHIMURIUM, Strain/Indicator: TA100, Metabolic Activation: NONE, Method: STANDARD PLATE.

Calls of active or inactive are those of the source. How the calls were made is not given here.

`CCNC(=O)NC(=O)/C(C#N)=N/OC`: the mutagenic call reads like this: (End Point: In vitro chromosomal aberrations, Test System: Human lymphocytes, Metabolic Activation: None) “active; positive (structural changes)”; (End Point: In vitro chromosomal aberrations, Test System: Human lymphocytes, Metabolic Activation: S-9 (DPR evaluator did not provide additional details)) “active; positive (structural changes)”; (End Point: In vivo micronucleus, Test System: Bone marrow polychromatic erythrocytes, Species: Mouse, Strain/Sex: Female, Route: Oral (gavage)) “inactive; negative, significant toxicity (m and f) and early deaths (f only) as high dose”; (End Point: In vivo micronucleus, Test System: Bone marrow polychromatic erythrocytes, Species: Mouse, Strain/Sex: Male, Route: Oral (gavage)) “inactive; negative, significant toxicity (m and f) and early deaths (f only) as high dose”; (Test System: Ames Salmonella typhimurium, Strain/Indicator: TA97, Metabolic Activation: None, Method: Plate incorporation) “inactive; negative, testing into the cytotoxic range”; (Test System: Ames Salmonella typhimurium, Strain/Indicator: TA97, Metabolic Activation: S-9 (DPR evaluator did not provide additional information), Method: Plate incorporation) “inactive; negative, testing into the cytotoxic range”. Besides, the mutagenic call is, setting by setting: (Test System: Ames Salmonella typhimurium, Strain/Indicator: TA98, Metabolic Activation: None, Method: Plate incorporation) “inactive; negative, testing into the cytotoxic range”; (Test System: Ames Salmonella typhimurium, Strain/Indicator: TA98, Metabolic Activation: S-9 (DPR evaluator did not provide additional information), Method: Plate incorporation) “inactive; negative, testing into the cytotoxic range”; (Test System: Ames Salmonella typhimurium, Strain/Indicator: TA100, Metabolic Activation: None, Method: Plate incorporation) “inactive; negative, testing into the cytotoxic range”; (Test System: Ames Salmonella typhimurium, Strain/Indicator: TA100, Metabolic Activation: S-9 (DPR evaluator did not provide additional information), Method: Plate incorporation) “inactive; negative, testing into the cytotoxic range”; (Test System: Ames Salmonella typhimurium, Strain/Indicator: TA1535, Metabolic Activation: None, Method: Plate incorporation) “inactive; negative, testing into the cytotoxic range”; (Test System: Ames Salmonella typhimurium, Strain/Indicator: TA1535, Metabolic Activation: S-9 (DPR evaluator did not provide additional information), Method: Plate incorporation) “inactive; negative, testing into the cytotoxic range”. In addition, the mutagenic call runs as follows: (Test System: Chinese hamster ovary cells, Strain/Indicator: CHO Cells (HPRT) /6-Thioguanine, Metabolic Activation: None, Method: Preincubation) “inactive; negative”; (Test System: Chinese hamster ovary cells, Strain/Indicator: CHO Cells (HPRT)/6-Thioguanine, Metabolic Activation: S-9 (DPR evaluator did not provide additional information), Method: Preincubation) “inactive; negative”; (Test System: Male rat spermatocytes, Strain/Indicator: Thymidine incorporation, Metabolic Activation: None, Method: Autoradiography) “inactive; negative, mortality and clinical signs of toxicity observed”; (Test System: UDS Male rat hepatocytes, Strain/Indicator: Thymidine incorporation, Metabolic Activation: None, Method: Autoradiography) “inactive; negative, mortality and clinical signs of toxicity observed”; (Test System: UDS Rat hepatocytes, Strain/Indicator: Thymidine incorporation, Metabolic Activation: None, Method: Autoradiography) “active; positive, statistically significant but no linear dose response”.

With `CC[N+]([O-])=NC`, the mutagenic call is “inactive; negative” (Test System: AMES SALMONELLA TYPHIMURIUM, Strain/Indicator: TA1535, Metabolic Activation: HAMSTER, LIVER, S-9, AROCLOR 1254, Method: PREINCUBATION); “inactive; negative” under setting [1]; “inactive; negative” (Test System: AMES SALMONELLA TYPHIMURIUM, Strain/Indicator: TA1535, Metabolic Activation: RAT, LIVER, S-9, AROCLOR 1254, Method: PREINCUBATION).

Turning to `O=C(Cl)c1ccccc1C(=O)Cl`, the mutagenic call under setting [2] was “active; positive”; the mutagenic call (Test System: AMES SALMONELLA TYPHIMURIUM, Strain/Indicator: TA98, Metabolic Activation: RAT LIVER S-9, PCB, Method: PREINCUBATION) is “active; positive”; the mutagenic call under setting [3] is “active; positive”; the mutagenic call (Test System: AMES SALMONELLA TYPHIMURIUM, Strain/Indicator: TA100, Metabolic Activation: RAT LIVER S-9, PCB, Method: PREINCUBATION) was “active; positive”; the mutagenic call (Test System: AMES SALMONELLA TYPHIMURIUM, Strain/Indicator: TA104, Metabolic Activation: NONE, Method: PREINCUBATION) was “active; positive”; the mutagenic call (Test System: AMES SALMONELLA TYPHIMURIUM, Strain/Indicator: TA104, Metabolic Activation: RAT LIVER S-9, PCB, Method: PREINCUBATION) is “active; positive”. Also, the mutagenic call is, setting by setting: (Test System: E.COLI, Strain/Indicator: WP2 UVRA, Metabolic Activation: NONE, Method: PREINCUBATION) “active; positive”; (Test System: E.COLI, Strain/Indicator: WP2 UVRA, Metabolic Activation: RAT LIVER S-9, PCB, Method: PREINCUBATION) “active; positive”.

Turning to `O=Cc1ccc(O)cc1`, the mutagenic call is “inactive; negative” under setting [2]; “inactive; negative” (Test System: AMES SALMONELLA TYPHIMURIUM, Strain/Indicator: TA98, Metabolic Activation: RAT LIVER S-9, PHENOBARBITAL AND BETA-NAPHTHOFLAVONE, Method: PREINCUBATION); “inactive; negative” under setting [3]; “inactive; negative” (Test System: AMES SALMONELLA TYPHIMURIUM, Strain/Indicator: TA100, Metabolic Activation: RAT LIVER S-9, PHENOBARBITAL AND BETA-NAPHTHOFLAVONE, Method: PREINCUBATION); “inactive; negative” under setting [1]; “inactive; negative” (Test System: AMES SALMONELLA TYPHIMURIUM, Strain/Indicator: TA1535, Metabolic Activation: RAT LIVER S-9, PHENOBARBITAL AND BETA-NAPHTHOFLAVONE, Method: PREINCUBATION). Also, the mutagenic call by setting is: (Test System: AMES SALMONELLA TYPHIMURIUM, Strain/Indicator: TA1537, Metabolic Activation: NONE, Method: PREINCUBATION) “inactive; negative”; (Test System: AMES SALMONELLA TYPHIMURIUM, Strain/Indicator: TA1537, Metabolic Activation: RAT LIVER S-9, PHENOBARBITAL AND BETA-NAPHTHOFLAVONE, Method: PREINCUBATION) “inactive; negative”; (Test System: AMES SALMONELLA TYPHIMURIUM, Strain/Indicator: TA1538, Metabolic Activation: NONE, Method: PREINCUBATION) “inactive; negative”; (Test System: AMES SALMONELLA TYPHIMURIUM, Strain/Indicator: TA1538, Metabolic Activation: RAT LIVER S-9, PHENOBARBITAL AND BETA-NAPHTHOFLAVONE, Method: PREINCUBATION) “inactive; negative”; (Test System: E.COLI, Strain/Indicator: WP2UVRA, Metabolic Activation: NONE, Method: PREINCUBATION) “inactive; negative”; (Test System: E.COLI, Strain/Indicator: WP2UVRA, Metabolic Activation: RAT LIVER S-9, PHENOBARBITAL AND BETA-NAPHTHOFLAVONE, Method: PREINCUBATION) “inactive; negative”.

As to `Oc1ccc2c(ccc3c4ccccc4ccc23)c1`, the mutagenic call reads like this: (Test System: AMES SALMONELLA TYPHIMURIUM, Strain/Indicator: TA98, Metabolic Activation: RAT, LIVER, S-9, AROCLOR 1254, Method: STANDARD PLATE) “inactive; negative”; under setting [4], “inactive; negative”.

For the molecule `C1CCC(C(CC2CCCCN2)C2CCCCC2)CC1` (stereo not given), the mutagenic call is “inactive; negative” (Test System: AMES SALMONELLA TYPHIMURIUM, Strain/Indicator: TA100(FR1), Metabolic Activation: NONE, Method: STANDARD PLATE); “inactive; negative” (Test System: AMES SALMONELLA TYPHIMURIUM, Strain/Indicator: TA100(FR1), Metabolic Activation: RAT, LIVER, S-9, PHENOBARBITAL AND 3-METHYLCHOLANTHRENE, Method: STANDARD PLATE); “inactive; negative” under setting [4]; “inactive; negative” (Test System: AMES SALMONELLA TYPHIMURIUM, Strain/Indicator: TA100, Metabolic Activation: RAT, LIVER, S-9, PHENOBARBITAL AND 3-METHYLCHOLANTHRENE, Method: STANDARD PLATE); “inactive; negative” (Test System: CHINESE HAMSTER V-79, Strain/Indicator: V-79/6-THIOGUANINE, Metabolic Activation: NONE); “active; positive” (Test System: CHINESE HAMSTER V-79, Strain/Indicator: V-79/6-THIOGUANINE, Metabolic Activation: RAT, LIVER, HEPATOCYTES). For the same molecule, the mutagenic call was “inactive; negative” (Test System: CHINESE HAMSTER V-79, Strain/Indicator: V-79/OUABAIN, Metabolic Activation: NONE) and “inactive; negative” (Test System: CHINESE HAMSTER V-79, Strain/Indicator: V-79/OUABAIN, Metabolic Activation: RAT, LIVER, HEPATOCYTES).
